From patent US20100204464A1, “ASCORBIC ACID DERIVATIVES, THEIR PREPARATION METHODS, INTERMEDIATES AND USES IN COSMETICS” (NANJING ZHONGSHI CHEMICAL CO., LTD., priority 2007, published 2010)

Tests used:
[1] = tested on: B16F10 murine melanoma cells; experiment: MTT experiment: multiplication of melanoma cells; assay type: cell-based; details: for Multiplication rate of melanoma cell (MTT method, Mean ± SE): 72 h, blank control = 100%; for Concentration at which multiplication of B16F10 cells was significantly inhibited / Concentration with no influence on the multiplication of B16F10 cells: MTT experiment
Description: (§1) The effects of preventing melanin from deposition (whitening effects) of 3-O-glycosyl-L-ascorbic acid and 2-O-α-D-glucopyranosyl-L-ascorbic acid (AA-2G) were evaluated by using B16F10 murine melanoma cells. […] The experimental method comprising:
A. MTT experiment: to investigate the influence of each sample on the multiplication of B16F10 murine melanoma cell through cell culture.
All cells were seeded in the 96-well plate respectively at a density of 1*10^4/well, and incubated under 5% CO2 and at 37° C. for 24 h, then the supernatant was removed and to each well was added […] culture medium containing a certain concentration of medicine. Three concentrations, high, middle and low, were set for each medicine, each concentration in quadruplicate wells. For control group, 200 μL culture medium was directly added and incubated for 72 h. 20 μL MTT solution (5 g/L) was added to each well and the sample was incubated under 5% CO2 and at 37° C. for 4 h, then the supernatant was removed and to each well was added 150 μL DMSO. The sample was vibrated for 10 min and the absorbance of each well was measured at a wavelength of 490 nm (reference wavelength: 620 nm) by enzyme-label instrument. Cell multiplication rate=(average absorbance of each concentration of medicine to be screened)/(average absorbance of control group)*100%.

[2] = tested on: B16F10 cells; experiment: Quantitative analysis of the content of melanin of B16F10 cells; assay type: cell-based, murine; details: for Content of melanin of B16F10 cells (Mean ± SE): 6 days, blank control = 100%
Description: as §1
D. Quantitative analysis of the content of melanin.
B16F10 cells were seeded in φ 60 mm culture mediums, and incubated under 5% CO2 and at 37° C. for 24 h, then the supernatant was removed and to each medium was added culture medium containing different concentration of medicine and for control group, only culture medium was added. Each group was in triplicate and the culture medium was renewed every other day. After being incubated for 6 days, the cells were digested by 0.25% trypsin/EDTA and collected, then washed by PBS twice. The cells of each group were counted and 0.2 mL redistilled water was added to make the cells suspended for 1 min respectively, then the mixture of 500 μL ethanol and 500 μL ether was added. The cells were placed at room temperature for 15 min and centrifuged at a rate of 3000 rpm for 5 min, then the supernatant was removed and 1 ml NaOH (1 mol/L, containing 10% DMSO) was added to the precipitate. After being placed at 80° C. for 30 min, 4 mL redistilled water was added to dilute the concentration of NaOH to 0.2 mol/L. The absorbance of each group was measured at a wavelength of 475 nm (reference wavelength: 620 nm) by spectrophotometer. The content of melanin=[(absorbance of the group of medicine to be screened/average amount of cells)/(average absorbance of control group/average amount of cells)]*100%

[3] = biological target: T1, tyrosinase (Mus musculus, UniProt P11344); experiment: Activity of tyrosinase of B16F10 melanoma cells (L-DOPA, absorbance 490 nm); assay type: cell-based, murine; details: for Activity of tyrosinase of B16F10 melanoma cell (Mean ± SE): 6 days, control = 100%
T1 construct: endogenous in cells; host or cells: B16F10 murine melanoma cells
T1 sequence (P11344 19-533): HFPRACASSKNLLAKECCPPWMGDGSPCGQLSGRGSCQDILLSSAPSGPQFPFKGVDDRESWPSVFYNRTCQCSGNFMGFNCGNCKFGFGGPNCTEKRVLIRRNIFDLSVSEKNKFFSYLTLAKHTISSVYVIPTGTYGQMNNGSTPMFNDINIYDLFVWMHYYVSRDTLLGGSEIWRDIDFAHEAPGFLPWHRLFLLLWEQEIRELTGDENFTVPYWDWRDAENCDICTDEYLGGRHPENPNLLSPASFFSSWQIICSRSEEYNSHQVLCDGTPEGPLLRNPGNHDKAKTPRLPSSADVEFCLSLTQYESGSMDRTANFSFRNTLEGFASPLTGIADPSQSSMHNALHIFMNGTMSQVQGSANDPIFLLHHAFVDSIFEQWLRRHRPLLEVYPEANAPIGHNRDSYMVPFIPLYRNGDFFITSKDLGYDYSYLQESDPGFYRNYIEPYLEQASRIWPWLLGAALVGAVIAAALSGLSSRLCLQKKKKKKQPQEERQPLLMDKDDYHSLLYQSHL
Description: as §1
B. Experiment for determining the activity of tyrosinase: to investigate through cell culture the influence of each sample on the activity of tyrosinase playing an important role in the formation of melanin.
B16F10 cells were seeded in the 96-well plate respectively at a density of 5*10^3/well, and incubated under 5% CO2 and at 37° C. for 24 hour, then the supernatant was removed and to each well was added 100 μL culture medium containing different concentration of medicine to be screened and for blank control group, only culture medium was added. Each group was in quadruplicate and the culture medium was renewed every other day. After being incubated for 6 days, each well was washed by PBS without Ca^2+ and Mg^2+, and then 100 μL Triton-X solution (0.5%) was added to each well. After being vibrated in ultrasound for 30 minutes, 50 μL L-DOPA solution (10 mM/L) was added to each well and the samples was kept at 37° C. for 3 hours. The absorbance of each well was measured at a wavelength of 490 nm (reference wavelength: 620 nm) by enzyme-label instrument. Influence rate of the activity of tyrosinase=(average absorbance of the group of medicine to be screened)/(average absorbance of control group)*100%

[4] = Stability of aqueous solutions stored 3 months, content by HPLC and color; assay type: physicochemical; details: for Color, in words / Content (HPLC), in words: 10%, 5% and 1.0% aqueous solutions; for Content (HPLC): initial content 98%
Description: In the comparative experiment of stability between 3-O-lactosyl-L-ascorbic acid and 2-O-α-D-glucopyranosyl-L-ascorbic acid (AA-2G), both compounds were prepared as 10%, 5% and 1.0% aqueous solutions respectively and were placed at 0° C., 25° C. and […] respectively for 3 months.

[5] = tested on: B16F10 cells; experiment: DOPA staining of B16F10 cells (qualitative melanin/tyrosinase); assay type: cell-based, murine; details: 6 days, 0.5% L-DOPA, photos under microscope
Description: as §1
Each group was in quadruplicate and the culture medium was renewed every other day.

Structure (SMILES): OC[C@H]1O[C@@H](Oc2ccc(O)cc2)[C@H](O)[C@@H](O)[C@@H]1O [Arbutin]
- Multiplication rate of melanoma cell (MTT method, Mean ± SE) ([1]; 1.0 mM): 113.57 ± 5.57%
- Multiplication rate of melanoma cell (MTT method, Mean ± SE) ([1]; 5.0 mM): 102.94 ± 3.64%
- Multiplication rate of melanoma cell (MTT method, Mean ± SE) ([1]; 10.0 mM): 76.94 ± 6.08%
- Multiplication rate of melanoma cell (MTT method, Mean ± SE) ([1]; 20.0 mM): 46.15 ± 3.41 %
- Content of melanin of B16F10 cells (Mean ± SE) ([2]; 1.0 mM): 50.12 ± 1.97 %
- Content of melanin of B16F10 cells (Mean ± SE) ([2]; 2.5 mM): 36.61 ± 2.15 %
- Content of melanin of B16F10 cells (Mean ± SE) ([2]; 5.0 mM): 20.53 ± 1.02 %
- Activity of tyrosinase of B16F10 melanoma cell (Mean ± SE) ([3]; 1.0 mM): 50.02 ± 4.04 %
- Activity of tyrosinase of B16F10 melanoma cell (Mean ± SE) ([3]; 2.5 mM): 38.07 ± 1.78 %
- Activity of tyrosinase of B16F10 melanoma cell (Mean ± SE) ([3]; 5.0 mM): 20.53 ± 1.02 %

Structure (SMILES): O=c1cc(CO)occ1O [Kojic acid]
- Multiplication rate of melanoma cell (MTT method, Mean ± SE) ([1]; 1.0 mM): 92.20 ± 8.28%
- Multiplication rate of melanoma cell (MTT method, Mean ± SE) ([1]; 5.0 mM): 63.23 ± 3.66%
- Multiplication rate of melanoma cell (MTT method, Mean ± SE) ([1]; 10.0 mM): 43.10 ± 2.31 %
- Multiplication rate of melanoma cell (MTT method, Mean ± SE) ([1]; 20.0 mM): 43.55 ± 7.36 %
- Content of melanin of B16F10 cells (Mean ± SE) ([2]; 1.0 mM): 37.20 ± 4.33 %
- Content of melanin of B16F10 cells (Mean ± SE) ([2]; 2.5 mM): 24.15 ± 1.88 %
- Content of melanin of B16F10 cells (Mean ± SE) ([2]; 5.0 mM): 17.65 ± 1.42 %

Structure (SMILES): O=C1O[C@H]([C@@H](O)CO)C(O)=C1O[C@H]1O[C@H](CO)[C@@H](O)[C@H](O)[C@H]1O [VC derivative 1, 2-O-α-D-glucopyranosyl-L-ascorbic acid]
- Multiplication rate of melanoma cell (MTT method, Mean ± SE) ([1]; 1.0 mM): 108.66 ± 9.32%
- Multiplication rate of melanoma cell (MTT method, Mean ± SE) ([1]; 5.0 mM): 100.98 ± 14.79%
- Multiplication rate of melanoma cell (MTT method, Mean ± SE) ([1]; 10.0 mM): 43.21 ± 7.40 %
- Multiplication rate of melanoma cell (MTT method, Mean ± SE) ([1]; 20.0 mM): 8.17 ± 0.46 %
- Concentration at which multiplication of B16F10 cells was significantly inhibited [1]: ≥ 5.0 mM
- Concentration with no influence on the multiplication of B16F10 cells [1]: lower than 5.0 mM
- Effect of inhibiting the synthesis of melanin [2]: relatively weak
- Content of melanin of B16F10 cells (Mean ± SE) ([2]; 1.0 mM): 96.37 ± 3.63%
- Content of melanin of B16F10 cells (Mean ± SE) ([2]; 2.5 mM): 91.11 ± 1.82%
- Content of melanin of B16F10 cells (Mean ± SE) ([2]; 5.0 mM): 84.19 ± 1.85%
- Color, in words ([4]; 0° C.): colorless
- Content (HPLC), in words ([4]; 0° C.): almost unchanged
- Color, in words ([4]; 25° C. and 45° C.): obviously yellow
- Content (HPLC), in words ([4]; 25° C. and 45° C.): decreased
- Activity of tyrosinase of B16F10 melanoma cell (Mean ± SE) ([3]; 1.0 mM): 95.99 ± 2.01%
- Activity of tyrosinase of B16F10 melanoma cell (Mean ± SE) ([3]; 2.5 mM): 92.40 ± 0.94%
- Activity of tyrosinase of B16F10 melanoma cell (Mean ± SE) ([3]; 5.0 mM): 69.90 ± 1.733 %
- Inhibiting effect on the activity of tyrosinase ([3]; rather weaker than 3-O-lactosyl-L-ascorbic acid): a certain inhibiting effect

Structure (SMILES): O=C1O[C@H]([C@@H](O)CO)C(OC2O[C@H](CO)[C@@H](O[C@@H]3O[C@H](CO)[C@H](O)[C@H](O)[C@H]3O)[C@H](O)[C@H]2O)=C1O (stereo partly drawn) [VC derivative 2, 3-O-(D-lactosyl)-L-ascorbic acid]
- Multiplication rate of melanoma cell (MTT method, Mean ± SE) ([1]; 1.0 mM): 72.67 ± 10.59%
- Multiplication rate of melanoma cell (MTT method, Mean ± SE) ([1]; 5.0 mM): 79.34 ± 3.99%
- Multiplication rate of melanoma cell (MTT method, Mean ± SE) ([1]; 10.0 mM): 76.56 ± 7.67%
- Multiplication rate of melanoma cell (MTT method, Mean ± SE) ([1]; 20.0 mM): 66.67 ± 5.48 %
- Concentration at which multiplication of B16F10 cells was significantly inhibited [1]: ≥ 10.0 mM
- Concentration with no influence on the multiplication of B16F10 cells [1]: lower than 10.0 mM
- Content of melanin of B16F10 cells (Mean ± SE) ([2]; 1.0 mM): 51.01 ± 2.71 %
- Content of melanin of B16F10 cells (Mean ± SE) ([2]; 2.5 mM): 30.08 ± 3.77 %
- Content of melanin of B16F10 cells (Mean ± SE) ([2]; 5.0 mM): 22.24 ± 1.80 %
- Inhibiting melanin synthesis compared with kojic acid and arbutin ([2]; at the same concentration): no statistical difference
- Color ([4]; 1% aqueous solution, 0 °C): Colorless
- Content (HPLC) ([4]; 1% aqueous solution, 0 °C): 98%
- Color ([4]; 1% aqueous solution, 25 °C): Colorless
- Content (HPLC) ([4]; 1% aqueous solution, 25 °C): 98%
- Color ([4]; 1% aqueous solution, 45 °C): Slight
- Content (HPLC) ([4]; 1% aqueous solution, 45 °C): 96%
- Color ([4]; 5% aqueous solution, 0 °C): Colorless
- Content (HPLC) ([4]; 5% aqueous solution, 0 °C): 98%
- Color ([4]; 5% aqueous solution, 25 °C): Colorless
- Content (HPLC) ([4]; 5% aqueous solution, 25 °C): 98%
- Color ([4]; 5% aqueous solution, 45 °C): Slight
- Content (HPLC) ([4]; 5% aqueous solution, 45 °C): 96%
- Color ([4]; 10% aqueous solution, 0 °C): Colorless
- Content (HPLC) ([4]; 10% aqueous solution, 0 °C): 98%
- Color ([4]; 10% aqueous solution, 25 °C): Colorless
- Content (HPLC) ([4]; 10% aqueous solution, 25 °C): 98%
- Color ([4]; 10% aqueous solution, 45 °C): Slight
- Content (HPLC) ([4]; 10% aqueous solution, 45 °C): 94%
- Color, in words ([4]; 0° C.): colorless
- Content (HPLC), in words ([4]; 0° C.): almost unchanged
- Color, in words ([4]; 25° C. and 45° C.): colorless
- Content (HPLC), in words ([4]; 25° C. and 45° C.): changed little
- Activity of tyrosinase of B16F10 melanoma cell (Mean ± SE) ([3]; 1.0 mM): 51.01 ± 2.71 %
- Activity of tyrosinase of B16F10 melanoma cell (Mean ± SE) ([3]; 2.5 mM): 36.19 ± 2.98 %
- Activity of tyrosinase of B16F10 melanoma cell (Mean ± SE) ([3]; 5.0 mM): 20.68 ± 1.34 %
- Inhibition of tyrosinase activity compared with kojic acid ([3]; high concentration group (5.0 mM)): no statistical difference
- Inhibition of the activity of tyrosinase ([3]; high, middle and low concentrations (5.0 mM, 2.5 mM and 1.0 mM)): significantly inhibited
- Inhibition of tyrosinase activity compared with kojic acid ([3]; middle and low concentration groups (2.5 mM, 1.0 mM)): weaker
- Inhibition of tyrosinase activity compared with arbutin ([3]; three concentration groups (5.0, 2.5, 1.0 mM)): no statistical difference
- Degree of DOPA staining compared with blank control group [5]: lower degree of staining
